Source: PubChem BioAssay (NCI)
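In this assay, cells in 96-well plates receive the compound at five concentrations for 48 hours. Endpoints are linearly interpolated between the surrounding concentrations. Abbreviation: GI50, concentration required for 50% inhibition of growth. At the TGI there is no net growth.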

What was measured:
Assay in all cases: DTP human tumour cell line panel, 48 h
[1] = tested on: OVCAR-8 ovarian
[2] = tested on: 786-0 renal
[3] = tested on: TK-10 renal
[4] = tested on: K-562 leukemia
[5] = tested on: SK-OV-3 ovarian
[6] = tested on: U251 CNS
[7] = tested on: SNB-19 CNS
[8] = tested on: RPMI-8226 leukemia
[9] = tested on: NCI-H23 lung
[10] = tested on: HS 578T breast
[11] = tested on: EKVX NSCLC
[12] = tested on: HCT-116 colon
[13] = tested on: UO-31 renal
[14] = tested on: A549 NSCLC
[15] = tested on: UACC-62 melanoma
[16] = tested on: OVCAR-5 ovarian
[17] = tested on: NCI-H522 lung
[18] = tested on: MDA-MB-231 breast
[19] = tested on: SN12C renal
[20] = tested on: SK-MEL-28 melanoma
[21] = tested on: MALME-3M melanoma
[22] = tested on: KM12 colon
[23] = tested on: SR leukemia
[24] = tested on: UACC-257 melanoma
[25] = tested on: IGROV1 ovarian
[26] = tested on: SW-620 colon
[27] = tested on: DU-145 prostate
[28] = tested on: SNB-75 CNS
[29] = tested on: HCC-2998 colon
[30] = tested on: A498 renal
[31] = tested on: SK-MEL-5 melanoma
[32] = tested on: HT29 colon
[33] = tested on: RXF 393 renal
[34] = tested on: CAKI-1 renal
[35] = tested on: MCF7 breast
[36] = tested on: PC-3 prostate
[37] = tested on: HL-60(TB) leukemia
[38] = tested on: MOLT-4 leukemia
[39] = tested on: MDA-MB-435
[40] = tested on: SF-295 CNS
[41] = tested on: SF-268 CNS
[42] = tested on: CCRF-CEM leukemia
[43] = tested on: ACHN renal
[44] = tested on: HCT-15 colon
[45] = tested on: HOP-92 NSCLC
[46] = tested on: NCI/ADR-RES ovarian
[47] = tested on: SF-539 CNS
[48] = tested on: M14 melanoma
[49] = tested on: T-47D breast
[50] = tested on: OVCAR-4 ovarian
[51] = tested on: NCI-H226 lung
[52] = tested on: BT-549 breast
[53] = tested on: HOP-62 NSCLC
[54] = tested on: COLO 205 colon
[55] = tested on: NCI-H460 lung
[56] = tested on: SK-MEL-2 melanoma

O=c1oc2ccc(-c3ccc(F)cc3F)cc2c(=O)n1-c1ccc(F)c(F)c1
GI50 [1]: 1620 nM | TGI [1]: > 50000 nM | GI50 [2]: 1670 nM | TGI [2]: > 50000 nM | GI50 [3]: 1610 nM | TGI [3]: 16900 nM | GI50 [4]: 1160 nM | TGI [4]: > 50000 nM | GI50 [5]: 1270 nM | TGI [5]: > 50000 nM | GI50 [6]: 1530 nM | TGI [6]: > 50000 nM | GI50 [7]: 1610 nM | TGI [7]: > 50000 nM | GI50 [8]: 589 nM | TGI [8]: 2400 nM | GI50 [9]: 936 nM | TGI [9]: 2970 nM | GI50 [10]: 1570 nM | TGI [10]: > 50000 nM | GI50 [11]: 1460 nM | TGI [11]: 7350 nM | GI50 [12]: 1260 nM | TGI [12]: 5430 nM | GI50 [13]: 1100 nM | TGI [13]: 4670 nM | GI50 [14]: 1580 nM | TGI [14]: > 50000 nM | GI50 [15]: 519 nM | TGI [15]: 1670 nM | GI50 [16]: 1620 nM | TGI [16]: > 50000 nM | GI50 [17]: 666 nM | TGI [17]: 8620 nM | GI50 [18]: 894 nM | TGI [18]: 2340 nM | GI50 [19]: 1030 nM | TGI [19]: 4290 nM | GI50 [20]: 1190 nM | TGI [20]: 8200 nM | GI50 [21]: 874 nM | TGI [21]: 2510 nM | GI50 [22]: 1560 nM | TGI [22]: 5260 nM | GI50 [23]: 1870 nM | TGI [23]: > 50000 nM | GI50 [24]: 730 nM | TGI [24]: 4040 nM | GI50 [25]: 1700 nM | TGI [25]: > 50000 nM | GI50 [26]: 1770 nM | TGI [26]: > 50000 nM | GI50 [27]: 1750 nM | TGI [27]: > 50000 nM | GI50 [28]: 775 nM | TGI [28]: 2540 nM | GI50 [29]: 1700 nM | TGI [29]: 48700 nM | GI50 [30]: 374 nM | TGI [30]: 1700 nM | GI50 [31]: 562 nM | TGI [31]: 1440 nM | GI50 [32]: 8900 nM | TGI [32]: > 50000 nM | GI50 [33]: 1270 nM | TGI [33]: 4020 nM | GI50 [34]: 963 nM | TGI [34]: 3210 nM | GI50 [35]: 1220 nM | TGI [35]: > 50000 nM | GI50 [36]: 1420 nM | TGI [36]: > 50000 nM | GI50 [37]: 1060 nM | TGI [37]: 3070 nM | GI50 [38]: 1480 nM | TGI [38]: 6730 nM | GI50 [39]: 1280 nM | TGI [39]: 5460 nM | GI50 [40]: 1150 nM | TGI [40]: 3210 nM | GI50 [41]: 1380 nM | TGI [41]: > 50000 nM | GI50 [42]: 1470 nM | TGI [42]: > 50000 nM | GI50 [43]: 1410 nM | TGI [43]: 4880 nM | GI50 [44]: 1340 nM | TGI [44]: 5240 nM | GI50 [45]: 389 nM | TGI [45]: 2280 nM | GI50 [46]: 1320 nM | TGI [46]: > 50000 nM | GI50 [47]: 1690 nM | TGI [47]: 13800 nM | GI50 [48]: 1610 nM | TGI [48]: 35500 nM | GI50 [49]: 418 nM | TGI [49]: 3640 nM | GI50 [50]: 1350 nM | TGI [50]: > 50000 nM | GI50 [51]: 1410 nM | TGI [51]: 6240 nM | GI50 [52]: 1350 nM | TGI [52]: 4900 nM | GI50 [53]: 1410 nM | TGI [53]: 5940 nM | GI50 [54]: 8250 nM | TGI [54]: 27100 nM | GI50 [55]: 1320 nM | TGI [55]: > 50000 nM | GI50 [56]: 797 nM | TGI [56]: 3070 nM
